Data taken from patent publication US12611438B2, “Antiviral composition comprising a nucleolin-binding peptide” (ANYGEN CO., LTD., priority 2021, dated 2026).
Read-outs that look alike come from different tables or passages of the source.

Assays:
in vivo = conditions: C57BL/6, mouse, serum, 2 mg/kg
Method: (§1) In order to determine whether or not the stability of the peptide is enhanced, the in vivo half-life of the peptide was analyzed. […] The absorbance was measured at a wavelength of 450 nm using a VersaMax ELISA plate reader (Molecular Devices) and pharmacokinetics were analyzed with the phoenix WinNonlin 8.1 (Pharsight Corporation, Mountain View, CA, USA) program.

[1] = 2 mg/kg, tail vein, C57BL/6 mice
Method: as §1

[2] = test system: A549, MDCK, Vero E6, MA104, MARC-145, and LLC-PK cells; conditions: 10 μM
in vitro [3] = format: cell-based
Method: In order to determine the half maximal cytotoxic concentration (CC50) of AGM-330, confluent A549, MDCK, Vero E6, MA104, MARC-145, and LLC-PK cells grown in 96-well plates were treated with dilutions of NCL-targeting peptide ligands (AGM-330d-mCPP, AGM-330t-mCPP) prepared from a low concentration to […], followed by incubation for 24 hours. After removing each culture medium, 200 μL of a 3-(4,5-dimethylthiazol-2-yl)-2,5-diphenyl tetrazolium bromide (MTT) solution was added thereto, followed by incubation in a 5% CO2 incubator at 36° C. for 4 hours. Then, 150 μL of a DMSO solution was added to each well and then incubated at 20° C. Then, the optical density (OD) was measured at a wavelength of 570 nm with an enzyme-linked immunosorbent assay (ELISA) reader (Table 6).

influenza A virus = format: in vivo, C57BL/6 mice; conditions: 0.04, 0.2, and 1.00 mg/kg i.p. once a day for 5 days, observed 16 days
SARS-COV-2 [4] = conditions: for Lung, Alveolar wall thickening: Mild, incidence / Lung, Alveolar wall thickening: Minimal, incidence / Lung, Alveolar wall thickening: Moderate, incidence / Lung, Alveolar wall thickening: Normal, incidence / Lung, Alveolar wall thickening: Severe, incidence / Lung, Hemorrhage: Mild, incidence / Lung, Hemorrhage: Minimal, incidence / Lung, Hemorrhage: Moderate, incidence / Lung, Hemorrhage: Normal, incidence / Lung, Hemorrhage: Severe, incidence / Lung, Hyaline membrane: Mild, incidence / Lung, Hyaline membrane: Minimal, incidence / Lung, Hyaline membrane: Moderate, incidence / Lung, Hyaline membrane: Normal, incidence / Lung, Hyaline membrane: Severe, incidence / Lung, Inflammatory cell, intestinal: Mild, incidence / Lung, Inflammatory cell, intestinal: Minimal, incidence / Lung, Inflammatory cell, intestinal: Moderate, incidence / Lung, Inflammatory cell, intestinal: Normal, incidence / Lung, Inflammatory cell, intestinal: Severe, incidence / Lung, Neutrophilic/lymphocytic cell, alveolar: Mild, incidence / Lung, Neutrophilic/lymphocytic cell, alveolar: Minimal, incidence / Lung, Neutrophilic/lymphocytic cell, alveolar: Moderate, incidence / Lung, Neutrophilic/lymphocytic cell, alveolar: Normal, incidence / Lung, Proteinaceous debris: Mild, incidence / Lung, Proteinaceous debris: Minimal, incidence / Lung, Proteinaceous debris: Moderate, incidence / Lung, Proteinaceous debris: Normal, incidence / Lung, Proteinaceous debris: Severe, incidence: 5 animals
Method: Syrian hamsters (Female, 11 weeks, Raon Bio Co., Ltd.) were infected with SARS-COV-2 (2×10^5 pfu/mL) through intranasal irrigation.
Body weight was measured on the day of infection, the second day after infection, and the fourth day after infection.
Autopsy was measured on the fourth day after infection.

in vitro [5] = conditions: African green monkey
SARS-COV-2 [6] = experiment: microbe, parasite or virus in culture; conditions: Severe acute respiratory syndrome coronavirus 2, Vero C1008, 24 h

## CSCC[C@H](NC(=O)[C@H](C)NC(=O)CNC(=O)[C@H](Cc1c[nH]cn1)NC(=O)[C@@H](N)CCCNC(=N)N)C(=O)N[C@H](C(=O)N[C@@H](Cc1ccc(O)cc1)C(=O)N[C@@H](CC(C)C)C(=O)N[C@@H](CCCCN)C(=O)NCCOCCOCCOCCOCCOCCOCCC(=O)NCCCC[C@H](NC(=O)CCOCCOCCOCCOCCOCCOCCNC(=O)[C@H](CCCCN)NC(=O)[C@H](CC(C)C)NC(=O)[C@H](Cc1ccc(O)cc1)NC(=O)[C@@H](NC(=O)[C@H](CCSC)NC(=O)[C@H](C)NC(=O)CNC(=O)[C@H](Cc1c[nH]cn1)NC(=O)[C@@H](N)CCCNC(=N)N)C(C)C)C(=O)NCCCC[C@H](NC(=O)[C@H](CCCCNC(=O)CCOCCOCCOCCOCCOCCOCCNC(=O)[C@H](CCCCN)NC(=O)[C@H](CC(C)C)NC(=O)[C@H](Cc1ccc(O)cc1)NC(=O)[C@@H](NC(=O)[C@H](CCSC)NC(=O)[C@H](C)NC(=O)CNC(=O)[C@H](Cc1c[nH]cn1)NC(=O)[C@@H](N)CCCNC(=N)N)C(C)C)NC(=O)CCOCCOCCOCCOCCOCCOCCNC(=O)[C@H](CCCCN)NC(=O)[C@H](CC(C)C)NC(=O)[C@H](Cc1ccc(O)cc1)NC(=O)[C@@H](NC(=O)[C@H](CCSC)NC(=O)[C@H](C)NC(=O)CNC(=O)[C@H](Cc1c[nH]cn1)NC(=O)[C@@H](N)CCCNC(=N)N)C(C)C)C(=O)N[C@@H](CS)C(=O)O)C(C)C [AGM-330t]
In vivo; intravenous
  Cmax: 1880 ± 670 ng/mL
  Tmax: 0.167 h
  half-life: 9.43 ± 1.21 h
In vivo; iv
  AUC: 21400 ± 810 ng·h/mL
[1]
  in vivo stability compared with monomeric or dimeric peptides: higher stability

## CC[C@H](C)[C@H](NC(=O)[C@H](CCCNC(=N)N)NC(=O)CCN1C(=O)CC(SC[C@H](NC(=O)[C@H](CCCCNC(=O)CCOCCOCCOCCOCCOCCOCCNC(=O)[C@H](CCCCN)NC(=O)[C@H](CC(C)C)NC(=O)[C@H](Cc2ccc(O)cc2)NC(=O)[C@@H](NC(=O)[C@H](CCSC)NC(=O)[C@H](C)NC(=O)CNC(=O)[C@H](Cc2c[nH]cn2)NC(=O)[C@@H](N)CCCNC(=N)N)C(C)C)NC(=O)CCOCCOCCOCCOCCOCCOCCNC(=O)[C@H](CCCCN)NC(=O)[C@H](CC(C)C)NC(=O)[C@H](Cc2ccc(O)cc2)NC(=O)[C@@H](NC(=O)[C@H](CCSC)NC(=O)[C@H](C)NC(=O)CNC(=O)[C@H](Cc2c[nH]cn2)NC(=O)[C@@H](N)CCCNC(=N)N)C(C)C)C(=O)O)C1=O)C(=O)N[C@@H](CCSC)C(=O)N[C@@H](CCCNC(=N)N)C(=O)N[C@H](C(=O)N[C@@H](CC(C)C)C(=O)N[C@@H](CCCNC(=N)N)C(=O)N[C@H](C(=O)N[C@@H](CC(C)C)C(=O)N[C@@H](CCCCN)C(=O)N[C@@H](CC(C)C)C(=O)N[C@@H](C)C(=O)N[C@@H](CCCNC(=N)N)C(=O)O)[C@@H](C)CC)[C@@H](C)CC (stereo partly shown) [AGM-330d-mCPP]
[2]
  cytotoxicity at high concentration: did not exhibit significant cytotoxicity
In vitro [3]; African green monkey, MA-104, MTT
  CC50 at 24 h: 99.9 µM
In vitro [3]; African green monkey, MARC-145, MTT
  CC50 at 24 h: 98 µM
In vitro [3]; African green monkey, Vero E6, MTT
  CC50 at 24 h: 108 µM
In vitro [3]; human, A549, MTT
  CC50 at 24 h: 102 µM
In vitro [3]; human, HRT-18, MTT
  CC50 at 24 h: 89.5 µM
In vitro [3]; pig, LLC-PK, MTT
  CC50 at 24 h: 101 µM
Influenza A virus
  survival rate: significantly improved survival rate
SARS-COV-2 [4]; 6 mg/kg
  lung histopathological lesions versus virus control group: significantly reduced
SARS-COV-2 [4]; 6 mg/kg, autopsy fourth day after infection
  macroscopic lung changes versus virus control group: significantly alleviated
SARS-COV-2 [4]; 0.2, 2, 6 mg/kg i.p., eight times for four days, observed 5 days after infection
  mortality: no dead animals occurred
SARS-COV-2 [4]; 0.2, 2, 6 mg/kg i.p., day of infection, day 2, day 4
  body weight change versus virus control group: No significant weight change
SARS-COV-2 [4]; AGM-1: 0.2 mg/kg
  Lung, Alveolar wall thickening: Mild, incidence: 3
  Lung, Alveolar wall thickening: Minimal, incidence: 0
  Lung, Alveolar wall thickening: Moderate, incidence: 2
  Lung, Alveolar wall thickening: Normal, incidence: 0
  Lung, Alveolar wall thickening: Severe, incidence: 0
  Lung, Hemorrhage: Mild, incidence: 2
  Lung, Hemorrhage: Minimal, incidence: 3
  Lung, Hemorrhage: Moderate, incidence: 0
  Lung, Hemorrhage: Normal, incidence: 0
  Lung, Hemorrhage: Severe, incidence: 0
  Lung, Hyaline membrane: Mild, incidence: 3
  Lung, Hyaline membrane: Minimal, incidence: 0
  Lung, Hyaline membrane: Moderate, incidence: 2
  Lung, Hyaline membrane: Normal, incidence: 0
  Lung, Hyaline membrane: Severe, incidence: 0
  Lung, Inflammatory cell, intestinal: Mild, incidence: 2
  Lung, Inflammatory cell, intestinal: Minimal, incidence: 0
  Lung, Inflammatory cell, intestinal: Moderate, incidence: 3
  Lung, Inflammatory cell, intestinal: Normal, incidence: 0
  Lung, Inflammatory cell, intestinal: Severe, incidence: 0
  Lung, Neutrophilic/lymphocytic cell, alveolar: Mild, incidence: 3
  Lung, Neutrophilic/lymphocytic cell, alveolar: Minimal, incidence: 2
  Lung, Neutrophilic/lymphocytic cell, alveolar: Moderate, incidence: 0
  Lung, Neutrophilic/lymphocytic cell, alveolar: Normal, incidence: 0
  Lung, Proteinaceous debris: Mild, incidence: 2
  Lung, Proteinaceous debris: Minimal, incidence: 3
  Lung, Proteinaceous debris: Moderate, incidence: 0
  Lung, Proteinaceous debris: Normal, incidence: 0
  Lung, Proteinaceous debris: Severe, incidence: 0
SARS-COV-2 [4]; AGM-2: 2 mg/kg
  Lung, Alveolar wall thickening: Mild, incidence: 3
  Lung, Alveolar wall thickening: Minimal, incidence: 0
  Lung, Alveolar wall thickening: Moderate, incidence: 2
  Lung, Alveolar wall thickening: Normal, incidence: 0
  Lung, Alveolar wall thickening: Severe, incidence: 0
  Lung, Hemorrhage: Mild, incidence: 3
  Lung, Hemorrhage: Minimal, incidence: 2
  Lung, Hemorrhage: Moderate, incidence: 0
  Lung, Hemorrhage: Normal, incidence: 0
  Lung, Hemorrhage: Severe, incidence: 0
  Lung, Hyaline membrane: Mild, incidence: 3
  Lung, Hyaline membrane: Minimal, incidence: 0
  Lung, Hyaline membrane: Moderate, incidence: 2
  Lung, Hyaline membrane: Normal, incidence: 0
  Lung, Hyaline membrane: Severe, incidence: 0
  Lung, Inflammatory cell, intestinal: Mild, incidence: 1
  Lung, Inflammatory cell, intestinal: Minimal, incidence: 0
  Lung, Inflammatory cell, intestinal: Moderate, incidence: 3
  Lung, Inflammatory cell, intestinal: Normal, incidence: 0
  Lung, Inflammatory cell, intestinal: Severe, incidence: 1
  Lung, Neutrophilic/lymphocytic cell, alveolar: Mild, incidence: 3
  Lung, Neutrophilic/lymphocytic cell, alveolar: Minimal, incidence: 2
  Lung, Neutrophilic/lymphocytic cell, alveolar: Moderate, incidence: 0
  Lung, Neutrophilic/lymphocytic cell, alveolar: Normal, incidence: 0
  Lung, Proteinaceous debris: Mild, incidence: 2
  Lung, Proteinaceous debris: Minimal, incidence: 3
  Lung, Proteinaceous debris: Moderate, incidence: 0
  Lung, Proteinaceous debris: Normal, incidence: 0
  Lung, Proteinaceous debris: Severe, incidence: 0
SARS-COV-2 [4]; AGM-3: 6 mg/kg
  Lung, Alveolar wall thickening: Mild, incidence: 3
  Lung, Alveolar wall thickening: Minimal, incidence: 2
  Lung, Alveolar wall thickening: Moderate, incidence: 0
  Lung, Alveolar wall thickening: Normal, incidence: 0
  Lung, Alveolar wall thickening: Severe, incidence: 0
  Lung, Hemorrhage: Mild, incidence: 0
  Lung, Hemorrhage: Minimal, incidence: 5
  Lung, Hemorrhage: Moderate, incidence: 0
  Lung, Hemorrhage: Normal, incidence: 0
  Lung, Hemorrhage: Severe, incidence: 0
  Lung, Hyaline membrane: Mild, incidence: 1
  Lung, Hyaline membrane: Minimal, incidence: 4
  Lung, Hyaline membrane: Moderate, incidence: 0
  Lung, Hyaline membrane: Normal, incidence: 0
  Lung, Hyaline membrane: Severe, incidence: 0
  Lung, Inflammatory cell, intestinal: Mild, incidence: 3
  Lung, Inflammatory cell, intestinal: Minimal, incidence: 2
  Lung, Inflammatory cell, intestinal: Moderate, incidence: 0
  Lung, Inflammatory cell, intestinal: Normal, incidence: 0
  Lung, Inflammatory cell, intestinal: Severe, incidence: 0
  Lung, Neutrophilic/lymphocytic cell, alveolar: Mild, incidence: 0
  Lung, Neutrophilic/lymphocytic cell, alveolar: Minimal, incidence: 5
  Lung, Neutrophilic/lymphocytic cell, alveolar: Moderate, incidence: 0
  Lung, Neutrophilic/lymphocytic cell, alveolar: Normal, incidence: 0
  Lung, Proteinaceous debris: Mild, incidence: 1
  Lung, Proteinaceous debris: Minimal, incidence: 4
  Lung, Proteinaceous debris: Moderate, incidence: 0
  Lung, Proteinaceous debris: Normal, incidence: 0
  Lung, Proteinaceous debris: Severe, incidence: 0
In vitro [5]
  CC50 at 24 h: > 20 µM

## CCN(CC)CCCC(C)Nc1ccnc2cc(Cl)ccc12 (stereo not shown) [Chloroquine, chloroquine]
SARS-COV-2 [6]
  IC50: 8.25 µM
